{"source": "patent US20080081039A1", "about": "“Inorganic Selenium For Treatment Of Cancer” (priority 2004, published 2008)", "key": {"Akt [1]": {"system": "Akt", "assay": "Immunoblot of Akt phosphorylation in serum starved PC-3 cells", "assay_type": "cell-based, human", "conditions": "0.5 mM", "from_the_text": "(§1) The following antibodies were obtained from Cell Signaling Technology (Beverly, Mass., USA) unless otherwise stated: anti-p27^KIP1 (bd Pharmingen), anti-p21^CIP1 , ANTI-CYCLIN d1, ANTI-CYCLIN d3, ANTI-CDK4, ANTI-CDK6, ANTI-PHOSPHO rb (Ser807/811), anti-RB, anti-phospho Akt (Ser473), anti-phospho Akt (Thre308), anti-Akt, anti-phospho PDK1 (Ser241), anti-phospho PDK1 (Tyr373/376), anti-phospho GSK-3β, anti-phospho mTOR (Ser2448), anti-mTOR, anti-βIII tubulin (Promega).\n(§2) To determine the effect of selenate on the phosphorylation of proteins involved in the PI3K/Akt signaling cascade, 5×10^5 PC-3 cells were allowed to attach for 10 hours. […] Cells were lysed in ELB (250 mM NaCl, 50 mM HEPES pH 7.0, 5 mM EDTA, 0.5 mM DTT, 0.2% TX100, 20 mM sodium fluoride, 2 mM sodium pervanadate, Complete Protease Inhibitor Cocktail (Roche)). Lysates were centrifuged for 15 minutes at 4° C. Protein concentration was determined using the BCA system (Sigma) and equal amounts of protein were loaded into each lane of a SDS-polyacrylamide gel. The proteins were transferred onto PVDF (Millipore) membranes and detected with anti-mouse or anti-rabbit secondary antibodies couples to horseradish peroxidase (HRP) and chemiluminescence using the SuperSignal West Dura (Pierce). Membranes were stripped using the Restore Western Blot Stripping Buffer (Pierce)."}, "PDK1": {"system": "PDK1", "conditions": "0.5 mM, out to 6 hours", "from_the_text": "as §1, §2"}, "mTOR": {"system": "mTOR", "conditions": "0.5 mM, various time periods", "from_the_text": "as §1, §2"}, "GSK-3β": {"system": "GSK-3β", "conditions": "0.5 mM, various time periods", "from_the_text": "as §1, §2"}, "[2]": {"system": "retinoblastoma protein (Rb ser807/811)", "conditions": "0.5 mM, time-dependent", "from_the_text": "as §1, §2"}, "GFP-FKHR fusion protein": {"system": "GFP-FKHR fusion protein", "assay": "GFP-FKHR cellular localization in transfected PC-3 cells", "assay_type": "cell-based, human", "conditions": "LY294002 50 μM 1 hour; sodium selenate or selenomethionine 0.5 mM 3 hours", "description": "The day before transfection, 5×10^5 PC-3 cells were seeded in 24-well dishes and transiently transfected with 0.8 μg of pcDNA3-GFP-FKHRwt construct (kind gift Dr Bill Sellers, Dana-Farber Institute, Boston) using Lipofectamine 2000 (Invitrogen). Cells were permeabilized in 0.2% Triton X-100 and the nuclear contents stained with DAPI. Coverslips were mounted with fluorescent mounting medium (DAKO). The cellular distribution of green fluorescence was determined in dual fluorescent cells using a Leica epifluorescent microscope.\nReintroducing PTEN function in such cells induces translocation of FKHR to the nucleus eventually causing G1 arrest in PTEN-null cells (Nakamura et al 2000, supra)."}, "PC-3 cells": {"system": "PC-3 cells", "description": "Cells were allowed to grow until the indicated time points, then harvested, washed in PBS and fixed in ice cold 70% ethanol for 15 minutes. Cells were washed with PBS and resuspended in PBS containing 40 μg/mL of propidum iodide (Sigma) and […] of RNase. DNA histograms were generated for each reading and the proportion of cells present in the G1 and G2/M peaks determined. Results were obtained for three independent experiments."}, "Akt [3]": {"system": "Akt", "assay": "Activation of Akt by different selenium compounds in PC-3 cells, immunoblot", "assay_type": "cell-based, human", "conditions": "serum starved PC-3 cells", "from_the_text": "Signal intensities from the developed films were scanned and intensities of active Akt correlated to total Akt levels were plotted."}, "[4]": {"system": "androgen sensitive LNCaP cells", "conditions": "for androgen sensitive NS LNCaP cell proliferation: 5 μM, 9 days", "description": "Cells were harvested at 72 hours following addition of the compounds and cell counts of viable cells as assessed by Trypan Blue staining were determined.\nCells were harvested at the indicated periods following addition of the compounds and cell counts of viable cells as assessed by Trypan Blue staining were determined.\nThe parental androgen-sensitive LNCaP cell line was obtained from the American Type Culture Collection (Manassas, Va., USA) and routinely cultured in […] (Invitrogen) supplemented with 10% foetal calf serum and 1% antibiotic/antimycotic mixture (Invitrogen). Cells were maintained at 37° C. in 5% CO2. To select androgen independent LNCaP cells LNCaPs were cultured in […] (Invitrogen) in 5% Charcoal stripped serum (CSS) (Invitrogen) which has removed all detectable traces of testosterone, for 6-8 weeks and obtained LNCaP cell lines which were now able to freely proliferate in the absence of testosterone. These cells are referred to as CSS LNCaPs.\n(§3) Between 5×10^4 (FIGS. 1-2) and 1×10^5 LNCaP, CSS LNCaP or Q293 cells were allowed to attach overnight. […] Supernatants and cells were then harvested, combined and viable cells assessed by Trypan Blue exclusion assay. Experiments were performed in triplicate."}, "[5]": {"system": "human kidney epithelial Q293 cells", "assay": "Cell growth curve of Q293 cells, Trypan Blue", "assay_type": "cell-based", "conditions": "selenate 5 μM, LY294002 10 μM, 9 days", "description": "Q293 cells are a human kidney epithelial cell line routinely cultured in DMEM media (Invitrogen) in 5% foetal calf serum and 1% antibiotic/antimycotic mixture (Invitrogen).\nas §3"}}, "note": "Where “and” joins values, the source holds several entries; their conditions need not be identical. Identical values can stand only once. Like-named read-outs stand apart in the source and are kept apart here.", "data": [{"smiles": "O=[Se](=O)(O)O", "note": "[sodium selenate]", "values": [{"measurement": "total cellular Akt levels (pan Akt)", "setting": "Akt [1]", "value": "essentially unchanged"}, {"measurement": "Akt activation after the transient boost", "setting": "Akt [1]; later exposure times", "value": "marked and prolonged deactivation"}, {"measurement": "Akt phosphorylation at Ser473", "setting": "Akt [1]; various time points, FIG. 4D", "value": "profoundly inhibited"}, {"measurement": "phosphorylation of Akt at Ser473 and Thr308, early", "setting": "Akt [1]; within 10 minutes of exposure", "value": "transient boost"}, {"measurement": "phosphorylation status of PDK1 (ser241, tyr373/376)", "setting": "PDK1", "value": "no effect"}, {"measurement": "mTOR phosphorylation status", "setting": "mTOR", "value": "induced a decline"}, {"measurement": "GAK-3β phosphorylation status", "setting": "GSK-3β", "value": "induced a decline"}, {"measurement": "phosphorylation of Rb (ser807/811)", "setting": "[2]", "value": "marked decline"}, {"measurement": "relocalization of GFP-FKHR from the cytoplasm to the nucleus", "setting": "GFP-FKHR fusion protein", "value": "marked relocalization"}, {"measurement": "percentage of the cell population in G1", "setting": "PC-3 cells; 0.25 and 0.5 mM, 24 hours, control 55%", "value": "69-70%"}, {"measurement": "percentage of PC-3 cells at G2/M phase", "setting": "PC-3 cells; 48 hours", "value": "decreased"}, {"measurement": "percentage of the cell population in G1", "setting": "PC-3 cells; 48 hours, dose- and time-dependent", "value": "increased"}, {"measurement": "percentage of cells at G2/M phase", "setting": "PC-3 cells; increasing concentrations (0.25, 0.5 mM), 24 hours, control 28%", "value": "19% and 24%"}, {"measurement": "activation of Akt (phosphorylated Akt relative to total Akt)", "setting": "Akt [3]; 125 μM, 6 hours", "value": "inhibits activation of Akt"}, {"measurement": "activation of Akt at high dose", "setting": "Akt [3]; 500 μM, 1 hour", "value": "inhibited activation of Akt"}, {"measurement": "androgen sensitive NS LNCaP cell proliferation", "setting": "[4]; absence of androgen (charcoal stripped serum)", "value": "synergizes with androgen ablation to markedly reduce"}, {"measurement": "androgen sensitive NS LNCaP cell proliferation", "setting": "[4]; presence of androgen (normal serum)", "value": "markedly reduces"}, {"measurement": "parental LNCaP cell proliferation", "setting": "[4]; 50 μM, 72 hours, presence or absence of androgen", "value": "synergizes with androgen ablation to reduce"}, {"measurement": "Q293 cell proliferation", "setting": "[5]; CSS media (androgen ablation)", "value": "does not significantly effect"}, {"measurement": "Q293 cell proliferation", "setting": "[5]; normal serum", "value": "does not significantly effect"}]}]}
